Laboratory results as given in US11555072B2, “A33 antibody compositions and methods of using the same in radioimmunotherapy” (MEMORIAL SLOAN KETTERING CANCER CENTER, priority 2017, dated 2023).

Experiments:
LS174T tumors = assay: s.c. LS174T xenograft with s.c. PBMCs; format: in vivo, mice; settings: 6 doses over 3 weeks
Procedure: (§1) In vivo tumor therapy. For subcutaneous (s.c.) tumor models, LS174T, Colo205 or SNU16 cells were combined with fresh PBMCs at a 1:1 ratio, mixed with […]® (volume of cell:gel=1:2), and implanted (100 μl/mouse) at the flank of Balb/c Rag2^−/−IL2Rγ^−/− (DKO) mice (now commercially available from Taconic as CIEA BRG mice). Treatment started after confirmation of tumor presence with a BIW schedule at 100 μg/mouse and continued for 3-4 weeks. Tumor growth was monitored by weekly measurement of tumor volume using a caliper or a digital device Peira TM900 Scanner (Peira Scientific Instruments, Turnhout, Belgium).
HuA33-BsAb cured MSI tumor LSI74T in a s.c. xenograft model and suppressed tumor growth in an i.p. model. LS174T cells were mixed with PBMCs at a 1:1 ratio and implanted subcutaneously in DKO mice. […] Mice from tumor+PBMC group developed tumor ulceration and had to be euthanized.

[1] = SEC-HPLC stability test (37° C. incubation, freeze-thaw); format: physicochemical
Procedure: SEC-HPLC analysis. Size and purity of huA33-BsAb was analyzed using HPLC system (Shimadzu Scientific Instruments Inc., Columbia, Md.). Monomeric species were identified using a molecular weight standard (Bio-Rad Laboratories, Hercules, Calif.) and percent monomer was calculated based on the relative area under curve (AUC) of different non-buffer peaks.
The huA33 antibody was reformatted into bispecific format by fusing scFv of humanized OKT3 to the C-terminus of light chain via a flexible GS linker (FIG. 1(A)). The DNA construct was used to establish a CHO-S stable cell line and huA33-BsAb was purified from the supernatant. Protein yield using protein A chromatography was 50 mg/L to 100 mg/L without extensive optimization. Similar yields were observed using EXPI293™ transient expression system (data not shown). One-step protein A purification routinely produced protein with purity above 90%, as measured by SEC-HPLC.

CD3 on T cell surface = target: T1, CD3 on T cell surface (Homo sapiens, UniProt P07766); assay: FACS staining of activated T cells; format: cell-based
T1 construct: endogenous in cells
T1 sequence (P07766 23-207): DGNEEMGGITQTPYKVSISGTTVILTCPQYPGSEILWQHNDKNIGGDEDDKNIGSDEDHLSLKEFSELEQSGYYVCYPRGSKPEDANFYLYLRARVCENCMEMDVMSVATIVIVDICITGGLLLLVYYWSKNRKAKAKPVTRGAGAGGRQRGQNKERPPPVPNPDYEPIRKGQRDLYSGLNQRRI
T1 sequence (P09693 23-182 partner): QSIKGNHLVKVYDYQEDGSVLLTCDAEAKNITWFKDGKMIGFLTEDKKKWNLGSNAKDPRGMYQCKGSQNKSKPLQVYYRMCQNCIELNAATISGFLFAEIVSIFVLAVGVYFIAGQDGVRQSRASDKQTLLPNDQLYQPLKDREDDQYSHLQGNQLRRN
T1 sequence (P04234 22-171 partner): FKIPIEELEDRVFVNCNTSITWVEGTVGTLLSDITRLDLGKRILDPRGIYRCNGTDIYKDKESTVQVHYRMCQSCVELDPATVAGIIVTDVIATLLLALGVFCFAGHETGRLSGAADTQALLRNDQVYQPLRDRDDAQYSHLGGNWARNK
T1 sequence (P20963 22-164 partner): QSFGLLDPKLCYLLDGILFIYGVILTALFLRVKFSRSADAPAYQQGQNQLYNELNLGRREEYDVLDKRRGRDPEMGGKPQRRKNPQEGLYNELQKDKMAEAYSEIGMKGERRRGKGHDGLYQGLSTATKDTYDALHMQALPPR
Source text: (§2) Antibodies and flow cytometry. Antibodies anti-hCD25-PE, anti-CD69-PE, anti-hCD8-APC, anti-hCD45-PECy7, anti-hCD4-PE, anti-hCD4-BV421, anti-hCD62L-PercpCy5.5, anti-hPD1-BV421, anti-hCD45RO-PECy7, were purchased from BIOLEGEND® (San Diego, Calif.). Goat anti-human IgG-PE was purchased from SouthernBiotech (Birmingham, Ala.). Streptavidin-PE, anti-hCD4-APC and anti-hCD25-APC were purchased from BD Biosciences (San Jose, Calif.). All FACS analysis was done using FACSCalibur or LSRII system (BD Biosciences, San Jose, Calif.) and analyzed using FlowJo (FLOWJO, Ashland, Oreg.).
(§3) The avidities of huA33-BsAb towards GPA33 at both 25° C. and 37° C. were measured using GPA33 immobilized CM5 chips.

LS174T tumor = assay: i.p. LS174T-luc tumor model with i.v. activated T cells; format: in vivo, mice
Procedure: For intraperitoneal (i.p.) tumor models, luciferase expressing LS174T-luc or SW1222-luc cells were resuspended in RPMI medium and injected intraperitoneally into DKO mice. Human effector cells were supplied as activated T cells and injected intravenously. Mice were treated with 2-3 weekly cycles of antibody-T cell-antibody regimen, with each component separated by 3-4 days. Growth of tumors was followed weekly by measuring luminescence signals on an IVIS Spectrum in vivo imaging system ([…]® Inc., Waltham, Mass.) after injection of 3.3 mg/mouse of luciferin. Luminescence was analyzed and quantified using Living Image Software ([…]®-Inc., Waltham, Mass.).
To simulate malignant ascites, a common occurrence in colon cancers, luciferase-expressing LS174T cells were planted intraperitoneally into DKO mice. When tumor growth was confirmed by luminescence, mice were randomized into different treatment groups, treated with no antibody group (tumor only), tumor+T cell only group (tumor+ATC), or i.v. huA33-BsAb (7 doses over 3 weeks), plus weekly T cell injections over 3 weeks. Treatment was started on day 5 after tumor implantation. All T cells were injected through retro-orbital route.

T cells [2] = assay: In vivo T cell proliferation assay; settings: CFSE-labeled PBMCs + Colo205 s.c. in DKO mice, antibody i.v. next day, tumors analyzed 4 days later
Procedure: To determine if T cells can be activated in vivo, an in vivo proliferation assay was conducted by mixing CFSE-labeled PBMCs with Colo205 cells and the mixture was implanted subcutaneously onto DKO mice. huA33-BsAb was injected intravenously the next day and the tumors were isolated after another 4 days and analyzed by FACS.

GPA33 = target: T2, GPA33 (Homo sapiens, UniProt Q99795); assay: FACS staining of tumor cell lines; format: cell-based; settings: panel of GPA33(+) and GPA33(−) cell lines
T2 construct: endogenous in cells; host or cells: human colon cancer cell lines (e.g. LS174T, SW1222, Colo205) and gastric cancer cell line SNU16
T2 sequence (Q99795 22-319): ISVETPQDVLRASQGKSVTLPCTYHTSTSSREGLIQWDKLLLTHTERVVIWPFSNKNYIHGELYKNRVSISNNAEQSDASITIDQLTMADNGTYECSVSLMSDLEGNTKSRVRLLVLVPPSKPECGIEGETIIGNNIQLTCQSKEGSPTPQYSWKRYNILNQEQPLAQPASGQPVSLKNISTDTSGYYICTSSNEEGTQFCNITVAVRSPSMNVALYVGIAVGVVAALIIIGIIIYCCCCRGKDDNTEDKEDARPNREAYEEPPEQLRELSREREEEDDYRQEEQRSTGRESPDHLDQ
Source text: as §2, §3

T cells [3] = assay: T cell activation and proliferation assay (CFSE-labeled PBMCs plus tumor cells); format: cell-based, human
Procedure: T cell proliferation assay. Fresh PBMCs from healthy donors were labeled with […] CFSE (Life Technologies Corp., Carlsbad, Calif.) for 5 min at room temperature, followed by neutralization using PBS containing 5% FBS. Target cells were then incubated with labeled PBMCs under different conditions at 37° C. before analyzing the expression of surface activation markers and T cell proliferation at 24 hours and 96 hours.
HuA33-BsAb activated and induced cell cycle entry of fresh T cells.

SNU16 tumors = assay: s.c. SNU16 gastric cancer xenograft with PBMCs; format: in vivo, mice; settings: s.c. SNU16 mixed with human PBMCs
Procedure: as §1
HuA33-BsAb inhibited growth of gastric cancers in a s.c. xenograft model. GPA33 is expressed in a subset of gastric cancer cells. […] Unlike NSG mice, DKO mice were more resistant to engraftment of human PBMCs.

huA33-BsAb: huA33 IgG with humanized OKT3 scFv fused to light chain C-terminus, N297A and K322A; SEQ ID NO: 19 and 21
time mice remained tumor free (LS174T tumors): at least 120 days
tumor response (LS174T tumors): effectively cured the mice
percentage of monomers after incubation ([1]; 37° C. for 4 weeks, SEC-HPLC): only a minimal decrease in the percentage of monomers
SEC-HPLC profile after freeze-thaw ([1]; four cycles of freeze-thaw): did not cause noticeable changes in SEC-HPLC profile
staining of activated T cells (CD3 on T cell surface): bound to CD3 on T cell surface
tumor growth in the abdomen (LS174T tumor; i.v., 7 doses over 3 weeks, weekly T cells): significantly suppressed metastatic growth of LS174T tumor
time all mice remained alive (LS174T tumor; without further treatment): at least 60 days
CD4(+) and CD8(+) T cells that upregulated CD25 expression while undergoing cell division (T cells [2]): around 25%
FACS staining of cancer cell lines (GPA33): stained colon cancer cell lines and one gastric cancer cell line but not GPA33(−) neuroblastoma cell line IMR32, osteosarcoma cell line TC32 or melanoma cell line SKMEL5
PD-1 upregulation on T cells (T cells [3]; PBMCs + Colo205, 24 and 96 hours): PD-1 upregulation was observed after 24 hours and persisted until 96 hours
T cell division by CFSE dye dilution (T cells [3]; PBMCs + Colo205, 96 hours): observed in both CD4(+) and CD8(+) T cells after 96 hours
T cell activation (upregulation of CD25 and CD69 markers) (T cells [3]; PBMCs + Colo205, E:T 5, 1 μg/ml, 24 hours): caused activation of both CD4(+) and CD8(+) T cells
T cell activation with GPA33(−) target cells (T cells [3]; SKMEL5 target cells, 96 hours): did not activate T cells
survival (SNU16 tumors): significantly prolonged survival
tumor response (SNU16 tumors): effectively cured the mice harboring s.c. tumors
